Data: publication PMC11842588, “A first-in-class selective inhibitor of ERK1/2 and ERK5 overcomes drug resistance with a single-molecule strategy” (Signal Transduction and Targeted Therapy, 2025)

What was measured:
Test in all cases: Kinase profiling
Type in all cases: biochemical
Fms(h) = molecular target: T1, Fms(h) (Homo sapiens, UniProt P07333)
T1 construct: purchased Eurofins Cerep SA (KinaseProfiler)
Experimental: (§1) 380 kinases inhibitory activities of SKLB-D18 were conducted by Eurofins Cerep SA. The result was illustrated by kinase tree (http://www.kinhub.org/kinmap/).

NEK7(h) = molecular target: T2, NEK7(h) (Homo sapiens, UniProt Q8TDX7)
T2 construct: purchased Eurofins Cerep SA (KinaseProfiler)
Experimental: as §1

Pyk2(h) = molecular target: T3, Pyk2(h) (Homo sapiens, UniProt Q14289)
T3 construct: purchased Eurofins Cerep SA (KinaseProfiler)
Experimental: as §1

NLK(h) = molecular target: T4, NLK(h) (Homo sapiens, UniProt Q9UBE8)
T4 construct: purchased Eurofins Cerep SA (KinaseProfiler)
T4 sequence (Q9UBE8 whole entry): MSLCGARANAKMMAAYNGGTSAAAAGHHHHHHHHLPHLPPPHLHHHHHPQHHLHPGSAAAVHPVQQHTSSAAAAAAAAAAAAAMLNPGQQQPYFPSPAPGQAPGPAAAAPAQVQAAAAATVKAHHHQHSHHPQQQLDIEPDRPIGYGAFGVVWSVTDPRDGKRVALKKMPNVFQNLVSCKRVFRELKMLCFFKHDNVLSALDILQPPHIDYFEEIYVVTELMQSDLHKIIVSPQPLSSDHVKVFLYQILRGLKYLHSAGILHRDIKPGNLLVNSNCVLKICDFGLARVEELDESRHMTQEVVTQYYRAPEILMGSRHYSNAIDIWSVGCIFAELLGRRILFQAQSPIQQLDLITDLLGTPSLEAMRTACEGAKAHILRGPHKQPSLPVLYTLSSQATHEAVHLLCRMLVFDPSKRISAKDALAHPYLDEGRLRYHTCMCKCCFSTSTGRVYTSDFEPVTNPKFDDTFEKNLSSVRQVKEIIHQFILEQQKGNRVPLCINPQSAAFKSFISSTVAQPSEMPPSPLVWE
Experimental: as §1

Aurora-C(h) = molecular target: T5, Aurora-C(h) (Homo sapiens, UniProt Q9UQB9)
T5 construct: purchased Eurofins Cerep SA (KinaseProfiler)
Experimental: as §1

HRI(h) = molecular target: T6, HRI(h) (Homo sapiens, UniProt Q9BQI3)
T6 construct: purchased Eurofins Cerep SA (KinaseProfiler)
Experimental: as §1

TGFBR1(h) = molecular target: T7, TGFBR1(h) (Homo sapiens, UniProt P36897)
T7 construct: purchased Eurofins Cerep SA (KinaseProfiler)
Experimental: as §1

NEK1(h) = molecular target: T8, NEK1(h) (Homo sapiens, UniProt Q96PY6)
T8 construct: purchased Eurofins Cerep SA (KinaseProfiler)
Experimental: as §1

ARK5(h) = molecular target: T9, ARK5(h) (Homo sapiens, UniProt O60285)
T9 construct: purchased Eurofins Cerep SA (KinaseProfiler)
Experimental: as §1

Flt1(h) = molecular target: T10, Flt1(h) (Homo sapiens, UniProt P17948)
T10 construct: purchased Eurofins Cerep SA (KinaseProfiler)
Experimental: as §1

CK1γ1(h) = molecular target: T11, CK1γ1(h) (Homo sapiens, UniProt Q9HCP0)
T11 construct: purchased Eurofins Cerep SA (KinaseProfiler)
T11 sequence (Q9HCP0 whole entry): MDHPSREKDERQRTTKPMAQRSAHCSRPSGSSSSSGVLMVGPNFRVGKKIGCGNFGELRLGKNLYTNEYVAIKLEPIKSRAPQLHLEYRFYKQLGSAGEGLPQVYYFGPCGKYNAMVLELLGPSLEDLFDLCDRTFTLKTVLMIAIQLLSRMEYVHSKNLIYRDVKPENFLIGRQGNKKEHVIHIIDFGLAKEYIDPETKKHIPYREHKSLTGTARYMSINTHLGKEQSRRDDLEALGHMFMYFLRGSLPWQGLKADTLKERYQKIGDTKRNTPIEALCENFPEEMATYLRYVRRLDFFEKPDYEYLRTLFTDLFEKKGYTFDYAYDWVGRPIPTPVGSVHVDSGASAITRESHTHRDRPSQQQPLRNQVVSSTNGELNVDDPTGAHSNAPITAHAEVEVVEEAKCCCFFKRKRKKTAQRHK
Experimental: as §1

Plk3(h) = molecular target: T12, Plk3(h) (Homo sapiens, UniProt Q9H4B4)
T12 construct: purchased Eurofins Cerep SA (KinaseProfiler)
Experimental: as §1

CRIK(h) = molecular target: T13, CRIK(h) (Homo sapiens, UniProt O14578)
T13 construct: purchased Eurofins Cerep SA (KinaseProfiler)
Experimental: as §1

WNK1(h) = molecular target: T14, WNK1(h) (Homo sapiens, UniProt Q9H4A3)
T14 construct: purchased Eurofins Cerep SA (KinaseProfiler)
Experimental: as §1

HIPK1(h) = molecular target: T15, HIPK1(h) (Homo sapiens, UniProt Q86Z02)
T15 construct: purchased Eurofins Cerep SA (KinaseProfiler)
T15 sequence (Q86Z02 whole entry): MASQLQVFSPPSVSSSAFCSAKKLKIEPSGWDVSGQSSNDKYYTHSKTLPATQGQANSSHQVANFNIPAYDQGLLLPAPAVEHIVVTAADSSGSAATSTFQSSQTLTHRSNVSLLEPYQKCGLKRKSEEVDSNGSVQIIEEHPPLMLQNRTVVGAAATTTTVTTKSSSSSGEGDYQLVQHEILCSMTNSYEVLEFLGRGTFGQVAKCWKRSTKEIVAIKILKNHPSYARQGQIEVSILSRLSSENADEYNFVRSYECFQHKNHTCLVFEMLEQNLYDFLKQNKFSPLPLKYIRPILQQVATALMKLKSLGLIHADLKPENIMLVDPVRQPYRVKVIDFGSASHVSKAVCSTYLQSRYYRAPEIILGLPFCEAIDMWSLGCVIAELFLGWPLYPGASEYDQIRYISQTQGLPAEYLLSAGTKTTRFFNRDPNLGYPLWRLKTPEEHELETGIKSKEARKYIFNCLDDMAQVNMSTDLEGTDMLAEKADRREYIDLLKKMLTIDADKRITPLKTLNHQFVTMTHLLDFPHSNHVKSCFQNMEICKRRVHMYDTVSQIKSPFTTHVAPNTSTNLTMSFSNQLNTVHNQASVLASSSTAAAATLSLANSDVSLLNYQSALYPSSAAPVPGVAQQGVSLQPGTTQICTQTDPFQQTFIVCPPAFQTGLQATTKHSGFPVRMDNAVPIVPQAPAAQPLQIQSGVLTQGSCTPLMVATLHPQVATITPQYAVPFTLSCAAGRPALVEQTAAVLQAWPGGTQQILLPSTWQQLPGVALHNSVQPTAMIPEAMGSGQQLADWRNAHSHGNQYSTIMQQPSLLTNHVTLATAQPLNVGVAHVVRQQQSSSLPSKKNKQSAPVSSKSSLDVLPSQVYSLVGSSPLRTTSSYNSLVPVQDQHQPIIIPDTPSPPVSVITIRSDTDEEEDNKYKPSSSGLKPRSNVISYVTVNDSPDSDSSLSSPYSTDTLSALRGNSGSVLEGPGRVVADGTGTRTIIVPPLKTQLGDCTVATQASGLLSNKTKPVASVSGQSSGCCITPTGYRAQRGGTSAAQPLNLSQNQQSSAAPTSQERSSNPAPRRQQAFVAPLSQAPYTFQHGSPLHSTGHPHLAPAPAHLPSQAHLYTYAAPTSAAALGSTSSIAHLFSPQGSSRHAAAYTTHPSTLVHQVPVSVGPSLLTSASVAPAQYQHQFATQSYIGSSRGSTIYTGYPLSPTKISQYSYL
Experimental: as §1

PTK5(h) = molecular target: T16, PTK5(h) (Homo sapiens, UniProt P42685)
T16 construct: purchased Eurofins Cerep SA (KinaseProfiler)
Experimental: as §1

SRMS(h) = molecular target: T17, SRMS(h) (Homo sapiens, UniProt Q9H3Y6)
T17 construct: purchased Eurofins Cerep SA (KinaseProfiler)
Experimental: as §1

CK2(h) = molecular target: T18, CK2(h) (Homo sapiens, UniProt P68400)
T18 construct: purchased Eurofins Cerep SA (KinaseProfiler)
Experimental: as §1

EphA1(h) = molecular target: T19, EphA1(h) (Homo sapiens, UniProt P21709)
T19 construct: purchased Eurofins Cerep SA (KinaseProfiler)
Experimental: as §1

EGFR(h) = molecular target: T20, EGFR(h) (Homo sapiens, UniProt P00533)
T20 construct: purchased Eurofins Cerep SA (KinaseProfiler)
Experimental: as §1

DYRK2(h) = molecular target: T21, DYRK2(h) (Homo sapiens, UniProt Q92630)
T21 construct: purchased Eurofins Cerep SA (KinaseProfiler)
Experimental: as §1

JAK3(h) = molecular target: T22, JAK3(h) (Homo sapiens, UniProt P52333)
T22 construct: purchased Eurofins Cerep SA (KinaseProfiler)
T22 sequence (P52333 whole entry): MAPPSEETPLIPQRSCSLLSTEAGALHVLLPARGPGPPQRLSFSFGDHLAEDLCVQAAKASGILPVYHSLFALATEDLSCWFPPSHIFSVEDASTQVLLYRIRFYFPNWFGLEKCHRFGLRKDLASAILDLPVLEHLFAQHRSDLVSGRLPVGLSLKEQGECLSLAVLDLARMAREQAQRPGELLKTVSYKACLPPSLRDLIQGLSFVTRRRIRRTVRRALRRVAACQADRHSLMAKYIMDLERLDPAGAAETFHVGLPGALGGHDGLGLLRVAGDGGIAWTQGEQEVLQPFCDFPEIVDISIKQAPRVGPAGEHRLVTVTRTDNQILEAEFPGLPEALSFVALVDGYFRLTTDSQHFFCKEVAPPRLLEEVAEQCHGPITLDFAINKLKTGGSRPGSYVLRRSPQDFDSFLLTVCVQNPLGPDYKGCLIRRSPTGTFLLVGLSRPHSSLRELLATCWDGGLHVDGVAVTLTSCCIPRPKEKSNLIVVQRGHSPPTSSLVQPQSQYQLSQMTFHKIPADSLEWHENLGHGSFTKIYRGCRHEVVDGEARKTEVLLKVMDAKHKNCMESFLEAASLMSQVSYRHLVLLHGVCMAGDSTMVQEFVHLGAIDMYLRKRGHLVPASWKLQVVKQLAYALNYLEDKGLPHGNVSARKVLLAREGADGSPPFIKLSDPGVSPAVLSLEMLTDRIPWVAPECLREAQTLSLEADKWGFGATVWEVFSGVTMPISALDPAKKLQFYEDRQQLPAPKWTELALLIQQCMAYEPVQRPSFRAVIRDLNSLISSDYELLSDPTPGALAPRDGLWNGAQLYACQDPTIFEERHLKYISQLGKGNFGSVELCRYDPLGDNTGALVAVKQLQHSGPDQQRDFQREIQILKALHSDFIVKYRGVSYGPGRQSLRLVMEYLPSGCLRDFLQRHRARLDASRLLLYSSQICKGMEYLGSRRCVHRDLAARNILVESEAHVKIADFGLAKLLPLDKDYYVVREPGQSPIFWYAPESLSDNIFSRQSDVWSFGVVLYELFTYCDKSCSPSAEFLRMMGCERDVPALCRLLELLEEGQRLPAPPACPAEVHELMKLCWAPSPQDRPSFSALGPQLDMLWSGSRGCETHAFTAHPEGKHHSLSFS
Experimental: as §1

BRK(h) = molecular target: T23, BRK(h) (Homo sapiens, UniProt Q13882)
T23 construct: purchased Eurofins Cerep SA (KinaseProfiler)
Experimental: as §1

CDK4/cyclinD3(h) = molecular target: T24, CDK4/cyclinD3(h) (Homo sapiens, UniProt P11802)
T24 construct: purchased Eurofins Cerep SA (KinaseProfiler)
Experimental: as §1

MRCKα(h) = molecular target: T25, MRCKα(h) (Homo sapiens, UniProt Q5VT25)
T25 construct: purchased Eurofins Cerep SA (KinaseProfiler)
Experimental: as §1

MAPKAP-K3(h) = molecular target: T26, MAPKAP-K3(h) (Homo sapiens, UniProt Q16644)
T26 construct: purchased Eurofins Cerep SA (KinaseProfiler)
Experimental: as §1

JAK2(h) = molecular target: T27, JAK2(h) (Homo sapiens, UniProt O60674)
T27 construct: purchased Eurofins Cerep SA (KinaseProfiler)
Experimental: as §1

VRK1(h) = molecular target: T28, VRK1(h) (Homo sapiens, UniProt Q99986)
T28 construct: purchased Eurofins Cerep SA (KinaseProfiler)
Experimental: as §1

Snk(h) = molecular target: T29, Snk(h) (Homo sapiens, UniProt Q9NYY3)
T29 construct: purchased Eurofins Cerep SA (KinaseProfiler)
Experimental: as §1

DYRK1A(h) = molecular target: T30, DYRK1A(h) (Homo sapiens, UniProt Q13627)
T30 construct: purchased Eurofins Cerep SA (KinaseProfiler)
Experimental: as §1

SGK(h) = molecular target: T31, SGK(h) (Homo sapiens, UniProt O00141)
T31 construct: purchased Eurofins Cerep SA (KinaseProfiler)
T31 sequence (O00141 whole entry): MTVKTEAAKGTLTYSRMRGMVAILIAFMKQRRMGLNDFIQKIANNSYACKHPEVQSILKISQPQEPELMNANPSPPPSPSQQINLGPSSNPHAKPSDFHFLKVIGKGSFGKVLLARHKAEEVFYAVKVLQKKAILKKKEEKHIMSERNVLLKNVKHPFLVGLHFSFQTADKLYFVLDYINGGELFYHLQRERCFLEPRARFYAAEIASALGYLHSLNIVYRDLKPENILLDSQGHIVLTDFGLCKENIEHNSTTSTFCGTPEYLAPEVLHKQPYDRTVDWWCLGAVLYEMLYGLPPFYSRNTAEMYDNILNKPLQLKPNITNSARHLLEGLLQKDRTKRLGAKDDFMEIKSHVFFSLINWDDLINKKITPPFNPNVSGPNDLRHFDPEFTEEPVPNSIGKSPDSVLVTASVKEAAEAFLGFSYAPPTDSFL
Experimental: as §1

ALK(h) = molecular target: T32, ALK(h) (Homo sapiens, UniProt Q9UM73)
T32 construct: purchased Eurofins Cerep SA (KinaseProfiler)
Experimental: as §1

p70S6K(h) = molecular target: T33, p70S6K(h) (Homo sapiens, UniProt P23443)
T33 construct: purchased Eurofins Cerep SA (KinaseProfiler)
T33 sequence (P23443 whole entry): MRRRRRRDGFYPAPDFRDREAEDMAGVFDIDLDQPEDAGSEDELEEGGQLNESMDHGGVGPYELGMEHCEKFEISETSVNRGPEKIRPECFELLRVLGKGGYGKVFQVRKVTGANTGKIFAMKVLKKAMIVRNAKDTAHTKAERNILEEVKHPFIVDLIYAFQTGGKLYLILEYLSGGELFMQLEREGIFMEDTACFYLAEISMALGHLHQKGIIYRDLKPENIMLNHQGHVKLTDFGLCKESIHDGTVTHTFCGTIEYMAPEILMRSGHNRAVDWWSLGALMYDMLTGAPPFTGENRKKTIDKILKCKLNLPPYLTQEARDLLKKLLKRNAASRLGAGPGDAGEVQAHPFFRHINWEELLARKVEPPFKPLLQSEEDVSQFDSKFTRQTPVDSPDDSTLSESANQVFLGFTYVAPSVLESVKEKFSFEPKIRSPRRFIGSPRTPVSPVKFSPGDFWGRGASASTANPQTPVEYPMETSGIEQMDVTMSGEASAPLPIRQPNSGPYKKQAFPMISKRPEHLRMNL
Experimental: as §1

HPK1(h) = molecular target: T34, HPK1(h) (Homo sapiens, UniProt Q92918)
T34 construct: purchased Eurofins Cerep SA (KinaseProfiler)
Experimental: as §1

MARK3(h) = molecular target: T35, MARK3(h) (Homo sapiens, UniProt P27448)
T35 construct: purchased Eurofins Cerep SA (KinaseProfiler)
Experimental: as §1

TAK1(h) = molecular target: T36, TAK1(h) (Homo sapiens, UniProt O43318)
T36 construct: purchased Eurofins Cerep SA (KinaseProfiler)
Experimental: as §1

ICK(h) = molecular target: T37, ICK(h) (Homo sapiens, UniProt Q9UPZ9)
T37 construct: purchased Eurofins Cerep SA (KinaseProfiler)
Experimental: as §1

TLK1(h) = molecular target: T38, TLK1(h) (Homo sapiens, UniProt Q9UKI8)
T38 construct: purchased Eurofins Cerep SA (KinaseProfiler)
Experimental: as §1

PKCα(h) = molecular target: T39, PKCα(h) (Homo sapiens, UniProt P17252)
T39 construct: purchased Eurofins Cerep SA (KinaseProfiler)
Experimental: as §1

TBK1(h) = molecular target: T40, TBK1(h) (Homo sapiens, UniProt Q9UHD2)
T40 construct: purchased Eurofins Cerep SA (KinaseProfiler)
T40 sequence (Q9UHD2 whole entry): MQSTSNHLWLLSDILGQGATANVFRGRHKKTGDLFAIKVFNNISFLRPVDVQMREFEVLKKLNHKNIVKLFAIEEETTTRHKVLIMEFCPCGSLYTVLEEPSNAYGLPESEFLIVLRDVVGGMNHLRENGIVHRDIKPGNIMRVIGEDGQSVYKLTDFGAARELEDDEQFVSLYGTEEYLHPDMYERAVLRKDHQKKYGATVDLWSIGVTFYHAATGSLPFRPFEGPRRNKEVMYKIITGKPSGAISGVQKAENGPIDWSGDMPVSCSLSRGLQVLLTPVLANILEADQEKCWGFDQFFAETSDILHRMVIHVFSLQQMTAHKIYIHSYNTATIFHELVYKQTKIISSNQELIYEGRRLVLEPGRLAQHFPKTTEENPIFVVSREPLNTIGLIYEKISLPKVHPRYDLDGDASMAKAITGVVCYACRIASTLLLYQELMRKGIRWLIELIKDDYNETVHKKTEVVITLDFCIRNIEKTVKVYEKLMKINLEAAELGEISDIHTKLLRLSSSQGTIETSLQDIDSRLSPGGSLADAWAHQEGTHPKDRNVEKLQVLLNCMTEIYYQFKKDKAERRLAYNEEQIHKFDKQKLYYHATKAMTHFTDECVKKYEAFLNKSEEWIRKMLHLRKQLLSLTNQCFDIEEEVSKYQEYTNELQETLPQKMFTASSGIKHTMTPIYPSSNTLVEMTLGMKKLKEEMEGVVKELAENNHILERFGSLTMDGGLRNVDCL
Experimental: as §1

IRAK1(h) = molecular target: T41, IRAK1(h) (Homo sapiens, UniProt P51617)
T41 construct: purchased Eurofins Cerep SA (KinaseProfiler)
Experimental: as §1

CN(C)Cc1cccc(Nc2ncc(Cl)c(-c3csc(C(=O)NN4CCOCC4)c3)n2)c1 [SKLB-D18, 4-(5-chloro-2-((3-((dimethylamino)methyl)phenyl)amino)pyrimidin-4-yl)-N-morpholinothiophene-2-carboxamide]
inhibition at 1 µM (Fms(h)): 34%
inhibition at 1 µM (NEK7(h)): -2%
inhibition at 1 µM (Pyk2(h)): 46%
inhibition at 1 µM (NLK(h)): 26%
inhibition at 1 µM (Aurora-C(h)): 66%
inhibition at 1 µM (HRI(h)): 38%
inhibition at 1 µM (TGFBR1(h)): 20%
inhibition at 1 µM (NEK1(h)): 48%
inhibition at 1 µM (ARK5(h)): 72%
inhibition at 1 µM (Flt1(h)): 39%
inhibition at 1 µM (CK1γ1(h)): 16%
inhibition at 1 µM (Plk3(h)): 6%
inhibition at 1 µM (CRIK(h)): 19%
inhibition at 1 µM (WNK1(h)): 12%
inhibition at 1 µM (HIPK1(h)): 68%
inhibition at 1 µM (PTK5(h)): 35%
inhibition at 1 µM (SRMS(h)): 11%
inhibition at 1 µM (CK2(h)): 68%
inhibition at 1 µM (EphA1(h)): 10%
inhibition at 1 µM (EGFR(h)): -10%
inhibition at 1 µM (DYRK2(h)): 41%
inhibition at 1 µM (JAK3(h)): 67%
inhibition at 1 µM (BRK(h)): 32%
inhibition at 1 µM (CDK4/cyclinD3(h)): 60%
inhibition at 1 µM (MRCKα(h)): 2%
inhibition at 1 µM (MAPKAP-K3(h)): -10%
inhibition at 1 µM (JAK2(h)): 67%
inhibition at 1 µM (VRK1(h)): 16%
inhibition at 1 µM (Snk(h)): 28%
inhibition at 1 µM (DYRK1A(h)): 13%
inhibition at 1 µM (SGK(h)): 11%
inhibition at 1 µM (ALK(h)): 13%
inhibition at 1 µM (p70S6K(h)): 57%
inhibition at 1 µM (HPK1(h)): 68%
inhibition at 1 µM (MARK3(h)): 68%
inhibition at 1 µM (TAK1(h)): 64%
inhibition at 1 µM (ICK(h)): 20%
inhibition at 1 µM (TLK1(h)): 24%
inhibition at 1 µM (PKCα(h)): 21%
inhibition at 1 µM (TBK1(h)): 64%
inhibition at 1 µM (IRAK1(h)): 60%
